Measurements taken from a flash point compilation (Sun et al. 2020).
Counter-ions that a name gives are not always drawn.

flash point [°C]	SMILES
7	CCC(Cl)Cl [1,1-dichloropropane]
26	CCCCCCCl [1-chlorohexane]
38	COCC(C)O (stereo unspecified) [1-methoxy-2-propanol]
110	C=CCCCCCCCCCCCC [1-tetradecene]
-32	CCCC(C)C [2-methylpentane]
32	COCCCN [3-methoxypropylamine]
13	CC#N [acetonitrile]
-0	C1=CCCC1 [cyclopentene]
41	CCCCCCC=O [heptanal]
25	CCCCCC=O [hexanal]
84	CC1=CC(=O)CC(C)(C)C1 [isophorone]
-29	CC(C)OC(C)C [isopropyl ether]
35	CC(C)C1CCCCC1 [isopropylcyclohexane]
83	COC(=O)c1ccccc1 [methyl benzoate]
-30	CCC(C)OC (stereo unspecified) [methyl sec-butyl ether]
-11	CCC(C)(C)OC [methyl tert-pentyl ether]

flash point [°C]	SMILES
-6	C=C1CCCCC1 [methylenecyclohexane]
51	CCCCCCCCCC [n-decane]
-28	CCCOCCC [n-propyl ether]
60	CCCCCCCCN [octylamine]
65	CCCCCc1ccccc1 [pentylbenzene]
-40	CCC=O [propionaldehyde]
37	CCCOC(=O)CCC [propyl butyrate]
-0	CCCOC=O [propyl formate]
31	c1cncnc1 [pyrimidine]
26	CCC(C)O (stereo unspecified) [sec-butanol]
60	CC(=O)CC(=O)OC(C)(C)C [t-butyl acetoacetate]
60	CC(C)(C)c1ccccc1 [t-butylbenzene]
42	CC(C)(C)C1CCCCC1 [t-butylcyclohexane]
30	CCOC(OCC)OCC [triethoxymethane]
15	COC(OC)OC [trimethoxymethane]

SMILES	flash point [°C]
ClCCCCl [1,3-dichloropropane]	32
ClCCCCCl [1,4-dichlorobutane]	40
ClCCCCCCl [1,5-dichloropentane]	26
CCCCCl [1-chlorobutane]	-12
CCCCCCCCCl [1-chlorooctane]	63
CN(C)C1CCCCC1 [N,N-dimethylcyclohexylamine]	39
CC(=O)OC(C)C [isopropyl acetate]	2
Clc1cccc(Cl)c1 [m-dichlorobenzene]	63
CC(=O)C=C(C)C [mesityl oxide]	25
Cc1cc(C)cc(C)c1 [mesitylene]	50
C=C(C)C#N [methacrylonitrile]	1
CN=C=S [methyl isothiocyanate]	32
COC(=O)c1ccccc1O [methyl salicylate]	96
CN [methylamine]	-62
CN(CCO)CCO [methyldiethanolamine]	138
CCCCOC(C)=O [n-butyl acetate]	22
CCCCON=O [n-butyl nitrite]	-13
CCCC(=O)O [n-butyric acid]	69
CCCC#N [n-butyronitrile]	16
CCCCCCCC#N [octanenitrile]	73
CCCCCCCC(=O)Cl [octanoyl chloride]	82
Clc1ccc(Cl)cc1 [p-dichlorobenzene]	66
O=C1OC(=O)c2ccccc21 [phthalic anhydride]	152
C1CCNCC1.Cl [piperidine hydrochloride]	65
CCC(C)OC(C)=O (stereo unspecified) [sec-butyl acetate]	16
CCC(C)(C)O.CCC(C)(C)O [tert-amyl alcohol (2-methyl-2-butanol)]	20
CCCCN(CCCC)CCCC [tributylamine]	72
CCCCC#N [valeronitrile]	40

Remark: another data set of the same source

flash point [°C]	SMILES
21.00	CCC(Cl)Cl [1,1-dichloropropane]
35.00	CCCCCCCl [1-chlorohexane]
-29.00	CCCC(C)C [2-methylpentane]
6.00	CC#N [acetonitrile]
35.00	CCCCCCC=O [heptanal]
32.00	CCCCCC=O [hexanal]
-3.00	CCCOC=O [propyl formate]

SMILES	flash point [°C]
CCCCCl [1-chlorobutane]	-7.00
CCCCCCCCCl [1-chlorooctane]	70.00
CCCCCCCC(=O)Cl [octanoyl chloride]	81.00

Remark: another data set of the same source

flash point [°C]	SMILES
31	COCC(C)O (stereo unspecified) [1-methoxy-2-propanol]
97	C=CCCCCCCCCCCCC [1-tetradecene]
23	COCCCN [3-methoxypropylamine]
-30	C1=CCCC1 [cyclopentene]
-2	C=C1CCCCC1 [methylenecyclohexane]

SMILES	flash point [°C]
ClCCCCl [1,3-dichloropropane]	21
ClCCCCCl [1,4-dichlorobutane]	43
ClCCCCCCl [1,5-dichloropentane]	63
CN(C)C1CCCCC1 [N,N-dimethylcyclohexylamine]	41

Remark: another data set of the same source

SMILES	flash point [°C]
ClCC(Cl)CCl [1,2,3-Trichloropropane]	82.00
Clc1ccc(Cl)c(Cl)c1 [1,2,4-Trichlorobenzene]	99.00
CC(O)CCO (stereo unspecified) [1,3-Butylene glycol]	121.00
ClCCCCl [1,3-Dichloropropane]	35.00
NCCCN [1,3-Propanediamine]	24.00
ClCCCCCl [1,4-Dichlorobutane]	52.00
OCCCCCO [1,5-Pentanediol]	135.00
CC(O)C(C)O (stereo unspecified) [2,3-Butylene glycol]	85.00
CC(C)=CC(C)(C)C [2,4,4-Trimethyl-2-pentene]	2.00
CC(=O)CC(C)=O [2,4-Pentanedione]	41.00
Nc1cc(Cl)ccc1Cl [2,5-Dichloroaniline]	166.00
CCC(C=O)CC [2-Ethyl butyraldehyde]	21.00
CCCC=C(C=O)CC [2-Ethyl-3-propyl acrolein]	68.00
Oc1ccc2ccccc2c1 [2-Naphthol]	153.00
CC(C)[N+](=O)[O-] [2-Nitropropane]	39.00
CC=O [Acetaldehyde]	-38.00
CC(=O)O [Acetic acid]	43.00
CC(=O)OC(C)=O [Acetic anhydride]	54.00
CC(C)=O [Acetone]	-18.00
O=C(O)CCCCC(=O)O [Adipic acid]	191.00
N#CCCCCC#N [Adiponitrile]	93.00

SMILES	flash point [°C]
C=CCBr [Allyl bromide]	-1.00
COc1ccccc1 [Anisole]	52.00
c1ccc2cc3ccccc3cc2c1 [Anthracene]	121.00
O=C1c2ccccc2C(=O)c2ccccc21 [Anthraquinone]	185.00
O=Cc1ccccc1 [Benzaldehyde]	64.00
c1ccccc1 [Benzene]	-11.00
O=C(O)c1ccccc1 [Benzoic acid]	121.00
FC(F)(F)c1ccccc1 [Benzotrifluoride]	12.00
CC(=O)OCc1ccccc1 [Benzyl acetate]	102.00
OCc1ccccc1 [Benzyl alcohol]	101.00
O=C(OCc1ccccc1)c1ccccc1 [Benzyl benzoate]	148.00
ClCc1ccccc1 [Benzyl chloride]	67.00
SCc1ccccc1 [Benzyl mercaptan]	70.00
C1CCC(C2CCCCC2)CC1 [Bicyclohexyl]	74.00
C=COCCCC [Butyl vinyl ether]	-9.00
CC12CCC(CC1=O)C2(C)C (stereo unspecified) [Camphor]	66.00
Clc1ccccc1 [Chlorobenzene]	29.00
FC(F)=C(F)Cl [Chlorotrifluoroethylene]	-27.00
O=CC=Cc1ccccc1 [Cinnamaldehyde]	49.00
NC1CCCCC1 [Cyclohexylamine]	32.00
c1ccc(C2CCCCC2)cc1 [Cyclohexylbenzene]	99.00

SMILES	flash point [°C]
C1CCCC1 [Cyclopentane]	-7.00
CCCCCCCCOC(=O)c1ccccc1C(=O)OCCCCCCCC [Di-n-Octyl phthalate]	219.00
CCCCCCC(C)OC(=O)c1ccccc1C(=O)OC(C)CCCCCC (stereo unspecified) [Di-sec-Octyl phthalate]	218.00
OCCOCCO [Diethylene glycol]	124.00
CC(C)c1ccccc1C(C)C [Diisopropyl benzene]	76.00
CS(C)=O [Dimethyl sulphoxide]	95.00
CN(C)C=O [Dimethylformamide]	58.00
c1ccc(Nc2ccccc2)cc1 [Diphenylamine]	153.00
c1ccc(Cc2ccccc2)cc1 [Diphenylmethane]	130.00
CCO [Ethanol]	12.00
CCOC(C)=O [Ethyl acetate]	-4.40
C=CC(=O)OCC [Ethyl acrylate]	16.00
CCCC(=O)OCC [Ethyl butyrate]	26.00
O=CO [Formic acid]	69.00
OCc1ccco1 [Furfuryl alcohol]	75.00
Clc1c(Cl)c(Cl)c(Cl)c(Cl)c1Cl [Hexachlorobenzene]	242.00
CCCCCC [Hexane]	-22.00
COc1ccc(O)cc1 [Hydroquinone monomethyl ether]	131.00
CC(O)C#N (stereo unspecified) [Lactonitrile]	77.00
O=C1C=CC(=O)O1 [Maleic anhydride]	102.00
CC(=O)C=C(C)C [Mesityl oxide]	31.00
